Results published in US9029553B2, “2-anilino nicotinyl linked 2-amino benzothiazole conjugates and process for the preparation thereof” (Council of Scientific & Industrial Research, priority 2011, dated 2015).

Experiments:
topoisomerase II = assay: DNA topoisomerase-II inhibition assay; assay type: biochemical; details: 1 μM; etoposide 100 μM
Description: DNA topoisomerases are nuclear enzymes capable of resolving the topology of DNA to allow its replication. So, proper relaxing is very important for successful replication cycle and thus for the cell survival. However, topoisomerases also serve as targets in the anticancer chemotherapy in which cell death serves an important purpose. Moreover, the topoisomerase targeting drugs can either be classified either topo posions, which act by stabilizing enzyme DNA cleavable complexes leading to DNA break or topo catalytic inhibitors, which act by stabilizing enzyme where both DNA strands remain intact and no DNA breaks occur. Importantly, all the topoisomerase inhibitors finally induce apoptosis. In the present study, all the five compounds 4-8 were first subjected to topoisomerase II inhibition assay.

MCF-7 [1] = assay: SRB percentage growth inhibition (NCI protocol); assay type: cell-based; details: Homo sapiens, MCF7, 48 hrs exposure
Method: (§1) 2-Anilino nicotinyl linked 2-amino benzothiazoles conjugates of formula 4-8 have been tested against ten and eleven human cancer cell lines for 10 and 1 μM respectively derived from nine cancer types (leukemia, non-small cell lung cancer, colon cancer, CNS cancer, melanoma, ovarian cancer, renal cancer, prostate cancer and breast cancer) as per NCI protocol. For each compound, percentage of growth inhibition was calculated for individual cell lines at a minimum of two concentrations (1 and 10 μM). A protocol of 48 hrs continuous drug exposure was used, and a sulforhodamine B (SRB) protein assay was used to estimate cell viability or growth. The percentage of growth inhibition compared with the control was calculated in table 1 and table 2.

502713 = assay: SRB percentage growth inhibition (NCI protocol); assay type: cell-based; details: Homo sapiens, 48 hrs exposure
Method: as §1

A549 = assay: SRB percentage growth inhibition (NCI protocol); assay type: cell-based; details: Homo sapiens, 48 hrs exposure
Method: as §1

SK-NS-H = assay: SRB percentage growth inhibition (NCI protocol); assay type: cell-based; details: Homo sapiens, SK-N-SH, 48 hrs exposure
Method: as §1

PC-3 = assay: SRB percentage growth inhibition (NCI protocol); assay type: cell-based; details: Homo sapiens, 48 hrs exposure
Method: as §1

Sw-620 = assay: SRB percentage growth inhibition (NCI protocol); assay type: cell-based; details: Homo sapiens, 48 hrs exposure
Method: as §1

HCT-15 [2] = assay: SRB percentage growth inhibition (NCI protocol); assay type: cell-based; details: Homo sapiens, 48 hrs exposure
Method: as §1

DU145 = assay: SRB percentage growth inhibition (NCI protocol); assay type: cell-based; details: Homo sapiens, DU-145, 48 hrs exposure
Method: as §1

IGR-OV-1 = assay: SRB percentage growth inhibition (NCI protocol); assay type: cell-based; details: Homo sapiens, IGROV-1, 48 hrs exposure
Method: as §1

IMR-32 = assay: SRB percentage growth inhibition (NCI protocol); assay type: cell-based; details: Homo sapiens, 48 hrs exposure
Method: as §1

HEP-2 = assay: SRB percentage growth inhibition (NCI protocol); assay type: cell-based; details: Homo sapiens, 48 hrs exposure
Method: as §1

SiHa [3] = assay: SRB percentage growth inhibition (NCI protocol); assay type: cell-based; details: Homo sapiens, 48 hrs exposure
Method: as §1

OVCAR-5 = assay: SRB percentage growth inhibition (NCI protocol); assay type: cell-based; details: Homo sapiens, 48 hrs exposure
Method: as §1

Hela [4] = assay: SRB percentage growth inhibition (NCI protocol); assay type: cell-based; details: Homo sapiens, 48 hrs exposure
Method: as §1

HL-60 = assay: MTT inhibition of cell proliferation; assay type: cell-based; details: Homo sapiens, 48 h
Description: (§2) In order to determine the mode of action of cell death in cancer cells, first we explored the cytotoxic potential of different structural analogs of benzothiazoles on different human cancer cell lines. […] These compounds have limited or no cytotoxicity to cervical cancer SiHa, HeLa cells, breast cancer MCF-7 cells and colon cancer HCT-15 cells.

MCF-7 [5] = assay: MTT inhibition of cell proliferation; assay type: cell-based; details: Homo sapiens, MCF7, 48 h
Description: as §2

HCT-15 [6] = assay: MTT inhibition of cell proliferation; assay type: cell-based; details: Homo sapiens, 48 h
Description: as §2

SiHa [7] = assay: MTT inhibition of cell proliferation; assay type: cell-based; details: Homo sapiens, 48 h
Description: as §2

Hela [8] = assay: MTT inhibition of cell proliferation; assay type: cell-based; details: Homo sapiens, 48 h
Description: as §2

HL-60 cells = assay: Flow cytometric analysis of reactive oxygen species (DCFH-DA); assay type: cell-based, human; details: 1 μM; for increase in DCF positive cell population (ROS): 24 h, HL-60, compared to control
Method: It was clear that these compounds were cytotoxic and induce apoptosis in HL-60 cells, now we have to found out the early events which were responsible for the induction of apoptosis like reactive oxygen species (ROS) or nitric oxide (NO) generation. Intracellular peroxide (ROS) in the cells was measured by DCFH-DA by using flow cytometry. Cells were incubated with tested compounds at 1 μM for 24 h in HL-60 cells and analyzed by flow cytometry after double staining with DCFH-DA (FIG. 7). Cells were analyzed for fluorescence intensity in FL1 vs. cell count. There was hardly any DCF fluorescence (ROS positive cells) in the untreated HL-60 cells, and this status remained unchanged when cells were incubated for 24 hr with compounds 7 and 8. […] Compounds 4 and 6 also induce the generation of peroxide in HL-60 cells (31 and 16% increase, respectively).

[9] = system: normal monkey kidney CV-1 cells; assay: MTT cytotoxicity in normal cells; assay type: cell-based; details: Primates
Method: These compounds were also evaluated for their cytotoxic potential in normal cells and for these purpose their IC50 value were also determine in normal monkey kidney CV-1 cells by using MTT method. The ratios of normal to cancer cells IC50 value were ranges from 10-1000 times (Table 5).

[10] = system: Ehrlich Ascites Carcinoma (EAC); assay: In vivo anticancer activity, Ehrlich ascites carcinoma; design: species or system Swiss mice; details: for No. of deaths / toxicity to animals: EAC mice
Method: Model: Ehrlich Ascites Carcinoma (EAC)
Ehrlich ascites carcinoma (EAC) cells were collected from the peritoneal cavity of the swiss mice harbouring 8-10 days old ascitic tumor. 1×10^7 EAC cells were injected intraperitoneally in Swiss mice selected for the experiment on day 0. The next day, animals were randomized and divided into different groups. The treatment groups contained 7 animals each and control group contained 10 animals. Treatment groups were treated with different doses of test substances intraperitoneally from day 1-9. One of the treatment group received 5-fluorouracil (20 mg/kg, i.p) and it served as positive control. The tumor bearing control group was similarly administered normal saline (0.2 ml, i.p.). On day 12, animals were sacrificed and ascitic fluid was collected from peritoneal cavity of each mouse for the evaluation of tumor growth. Percent tumor growth inhibition was calculated based on the total number of tumor cells present in the peritoneal cavity as on day 12 of the experiment using the following formula.

SMILES	topoisomerase-II inhibition (DNA relaxation) (topoisomerase II)	inhibition at 1 µM (MCF-7 [1]) [%]	inhibition at 10 µM 502713 [%]	inhibition at 1 µM (A549) [%]	inhibition at 10 µM (A549) [%]	inhibition at 10 µM (SK-NS-H) [%]	inhibition at 1 µM (PC-3) [%]	inhibition at 1 µM (Sw-620) [%]	inhibition at 10 µM (Sw-620) [%]	inhibition at 1 µM (HCT-15 [2]) [%]	inhibition at 10 µM (HCT-15 [2]) [%]	inhibition at 1 µM (DU145) [%]	inhibition at 10 µM (DU145) [%]	inhibition at 1 µM (IGR-OV-1) [%]	inhibition at 1 µM (IMR-32) [%]	inhibition at 10 µM (IMR-32) [%]	inhibition at 1 µM (HEP-2) [%]	inhibition at 10 µM (HEP-2) [%]	inhibition at 10 µM (SiHa [3]) [%]	inhibition at 10 µM (OVCAR-5) [%]	also measured
O=C(Nc1nc2ccc([N+](=O)[O-])cc2s1)c1cccnc1Nc1ccccc1 [Compound 4, N-3-(6-Nitro-1,3-benzothiazol-2-yl)-2-(phenylamino)-3-pyridinecarboxamide]	more potent effect relative to etoposide	44	63	23	31	48	22	9	65	6	66	35	52	29	35	45	50	26	53	50	inhibition at 1 µM (OVCAR-5): 29%; inhibition at 1 µM (Hela [4]): 9%; IC50 (HL-60): 0.58 µM; IC50 (MCF-7 [5]): > 100 µM; IC50 (HCT-15 [6]): > 100 µM; IC50 (SiHa [7]): 28 µM; IC50 (Hela [8]): > 100 µM; increase in DCF positive cell population (ROS) (HL-60 cells): 31%; IC50 [9]: 70 µM; Growth Inhibition (%) ([10]; 10 mg/Kg i.p. day 1-9, read day 12): 42.21%; No. of deaths / toxicity to animals ([10]; 10 mg/Kg i.p.): 2; No. of deaths / toxicity to animals ([10]; 10 mg/Kg i.p., listed as Comp 4): 2/7; Growth Inhibition (%) ([10]; 50 mg/Kg i.p. day 1-9, read day 12): Intolerable; No. of deaths / toxicity to animals ([10]; 50 mg/Kg i.p.): toxic; No. of deaths / toxicity to animals ([10]; 50 mg/Kg i.p., listed as Comp 4): 7/7
COc1ccc(Nc2ncccc2C(=O)Nc2nc3ccc([N+](=O)[O-])cc3s2)cc1 [Compound 5, N3-(6-nitro-1,3-benzothiazol-2-yl)-2-(4-methoxyanilino)nicotinamide]	more potent effect relative to etoposide	25	59	27	3	64	21	15	64	9	47	53	32	27	53	55	38	5	66	52	inhibition at 1 µM (OVCAR-5): 31%; inhibition at 1 µM (Hela [4]): 7%; IC50 (HL-60): 0.7 µM; IC50 (MCF-7 [5]): > 100 µM; IC50 (HCT-15 [6]): > 100 µM; IC50 (SiHa [7]): 28 µM; IC50 (Hela [8]): > 100 µM; increase in DCF positive cell population (ROS) (HL-60 cells): ~44%; IC50 [9]: 10 µM; Growth Inhibition (%) ([10]; 5 mg/Kg i.p. day 1-9, read day 12): 20.90%; No. of deaths / toxicity to animals ([10]; 5 mg/Kg i.p.): 0/7; Growth Inhibition (%) ([10]; 30 mg/Kg i.p. day 1-9, read day 12): Intolerable; No. of deaths / toxicity to animals ([10]; 30 mg/Kg i.p.): toxic; No. of deaths / toxicity to animals ([10]; 30 mg/Kg i.p., listed as Comp 5): 7/7
O=c1[nH]cc(F)c(=O)[nH]1 [Compound 5-FU, 5-fluorouracil, reference compound]	–	–	21	–	–	7	–	44	76	46	44	–	–	–	–	71	–	–	44	22	–
O=C(Nc1nc2ccc([N+](=O)[O-])cc2s1)c1cccnc1Nc1ccc(Cl)cc1Cl [Compound 7]	more potent effect relative to etoposide	80	2	15	19	50	27	12	61	4	75	36	39	24	42	48	46	14	35	0	inhibition at 1 µM (OVCAR-5): 19%; inhibition at 1 µM (Hela [4]): 0%; IC50 (HL-60): 0.4 µM; IC50 (MCF-7 [5]): > 100 µM; IC50 (HCT-15 [6]): > 100 µM; IC50 (SiHa [7]): > 50 µM; IC50 (Hela [8]): > 100 µM; DCF fluorescence (ROS positive cells), in words (HL-60 cells; 24 hr, HL-60): unchanged; IC50 [9]: 0.8 µM; Growth Inhibition (%) ([10]; 20 mg/Kg i.p. day 1-9, read day 12): 63.89%; No. of deaths / toxicity to animals ([10]; 20 mg/Kg i.p.): without any deaths; No. of deaths / toxicity to animals ([10]; 20 mg/Kg i.p., listed as Comp 7): 0/7; Growth Inhibition (%) ([10]; 40 mg/Kg i.p. day 1-9, read day 12): Intolerable; No. of deaths / toxicity to animals ([10]; 40 mg/Kg i.p.): 7/7
CC(=O)O[C@H]1C(=O)[C@@]2(C)[C@H]([C@H](OC(=O)c3ccccc3)[C@]3(O)C[C@H](OC(=O)[C@H](O)[C@@H](NC(=O)c4ccccc4)c4ccccc4)C(C)=C1C3(C)C)[C@]1(OC(C)=O)CO[C@@H]1C[C@@H]2O [Pac, paclitaxel, reference compound]	–	–	59	34	41	20	–	–	73	–	37	44	42	–	–	46	–	–	49	51	–
